Values quoted from earlier work, collected in US20130210879A1, “FORMULATIONS OF BENDAMUSTINE” (priority 2012, published 2013).

Cn1c(CCCC(=O)O)nc2cc(N(CCCl)CCCl)ccc21 [Bendamustine]
stability in water: measured in hours
